# Results reported in patent US4194006A, “Therapeutic application of acetyl-d,l-carnitine and other acyl derivatives of d,l-carnitine” (priority 1977, dated 1980).
# Like-named read-outs stand apart in the source and are kept apart here.
# Tests used:
# mice = test: in vivo; conditions: for tolerance: LD50 intravenously in mice, compared with d,l-carnitine
# Text: (§1) The tolerance of acetyl-d,l-carnitine and of the other aforementioned acyl derivatives of the formula (I), as well as their salts were investigated by comparing the LD50 obtained by administering the compounds intravenously in mice with the LD50 obtained under the same experimental conditions by intravenous injection of d,l-carnitine.
# isolated rabbit hearts [1] = test: cardiokinetic effect on isolated heart (Langendorff): contractile force after anoxia, positive inotropic effect; conditions: for Contractile force, Mean ± S.E.: 10 minutes from interruption of anoxic period
# Procedure, shortened: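 Rabbit hearts were perfused Langendorff-style with oxygenated Ringer at 38.2 °C. Anoxia was applied until contractile force dropped by 80%, then the hearts were reoxygenated with or without compound. Contractile force was expressed as a percentage 10 min after the anoxic period ended.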
# isolated rabbit hearts [2] = test: coronary vasodilator effect: coronary flow, isolated heart (Langendorff)
# Procedure, shortened: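 Langendorff-perfused isolated rabbit hearts in oxygenated Ringer at 38.2° C; anoxia imposed until contractile force fell by 80%, then reoxygenated with or without test compound. Coronary flow, isometric contraction and ECG recorded by polygraph.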
# isolated rat atrium = test: antiarrhythmic effect, isolated rat atrium method of M. Libonati and G. Segre; conditions: for Mean percent variation versus controls: excitability (-%) / Mean percent variation versus controls: frequency max (-%) / inhibition at 0.1 µg/mL / inhibition at 0.01 µg/mL / inhibition at 0.001 µg/mL: decrease; for Mean percent variation versus controls: refractory period (+%) / Mean percent variation versus controls: rheobase (+%) / activation at 0.1 µg/mL / activation at 0.01 µg/mL / activation at 0.001 µg/mL: increase; for inhibition at 0.1 µg/mL / activation at 0.1 µg/mL / inhibition at 0.01 µg/mL / activation at 0.01 µg/mL / inhibition at 0.001 µg/mL / activation at 0.001 µg/mL: Rattus norvegicus
# female rats = test: antifatigue effect: rota-rod; format: in vivo, rat; conditions: for responders at 300 mg/kg / responders at 400 mg/kg / responders at 600 mg/kg: Rattus norvegicus, ip, 0.25 h, read-out: percentage of animals staying on the rota-rod more than 180 seconds
# Procedure, shortened: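 Female rats dosed intraperitoneally in saline, with controls given saline alone. Every 15 min after treatment animals were placed on a 6 cm rod rotating at 16 r.p.m. Value is the percentage of animals staying on the rod for more than 180 s, per session.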
# [3] = test system: adrenaline-induced toxicity; test: antagonism to adrenaline-induced toxicity; format: in vivo, male albino Swiss mice
# Experimental: (§2) The antagonism to adrenaline-induced toxicity was also investigated with the following results. Groups of ten male albino Swiss mice were injected with adrenaline (tartrate) intraperitoneally at progressive logarithmic doses. Other similar groups of animals were injected with 250 mg/kg of the compounds under examination via the same route, 30 minutes before adrenaline administration. Mortality was assessed by means of the Litchfield and Wilcoxon method 36 hours after adrenaline administration.
# in vivo = conditions: mouse, in vivo, iv
# Text: as §1
# [4] = antagonism to adrenaline-induced toxicity; format: in vivo, male albino Swiss mice; conditions: mouse, in vivo, ip; adrenaline (tartrate) intraperitoneally, mice; mortality 36 hours; read-out: LD50 (fiducial limits for 95%) of adrenaline alone
# Experimental: as §2
# [5] = 300 mg/kg i.p., session 1 (every 15 minutes)
# [6] = 300 mg/kg i.p., session 2 (every 15 minutes)
# [7] = 300 mg/kg i.p., session 4 (every 15 minutes)
# [8] = 300 mg/kg i.p., session 5 (every 15 minutes)
# [9] = 300 mg/kg i.p., session 6 (every 15 minutes)
# [10] = 400 mg/kg i.p., session 1 (every 15 minutes)
# [11] = 400 mg/kg i.p., session 2 (every 15 minutes)
# [12] = 400 mg/kg i.p., session 3 (every 15 minutes)
# [13] = 400 mg/kg i.p., session 4 (every 15 minutes)
# [14] = 400 mg/kg i.p., session 5 (every 15 minutes)
# [15] = 400 mg/kg i.p., session 6 (every 15 minutes), * p < 0.05
# [16] = 600 mg/kg i.p., session 1 (every 15 minutes)
# [17] = 600 mg/kg i.p., session 2 (every 15 minutes)
# [18] = 600 mg/kg i.p., session 3 (every 15 minutes)
# [19] = 600 mg/kg i.p., session 4 (every 15 minutes)
# [20] = 600 mg/kg i.p., session 5 (every 15 minutes)
# [21] = 600 mg/kg i.p., session 6 (every 15 minutes), * p < 0.05
smiles,measurement,setting,value
CC(O)CC(=O)OC(CC(=O)[O-])C[N+](C)(C)C (centres unmarked),tolerance,mice,better tolerance properties
same,Approx. LD50,"mice; intravenously in mice, compounds used as hydrochloryde forms",~745 mg/kg
same,"Contractile force, Mean ± S.E.",isolated rabbit hearts [1]; 1·10^-5 g/lt,54.3 ± 6.18%
same,"Contractile force, Mean ± S.E.",isolated rabbit hearts [1]; 1·10^-6 g/lt,30.1 ± 4.62%
same,"Contractile force, Mean ± S.E.",isolated rabbit hearts [1]; 5·10^-6 g/lt,38.6 ± 7.12%
same,positive inotropic effect,"isolated rabbit hearts [1]; equal concentrations in the perfusion fluid, Student's t test","greater positive inotropic effect than that induced by d,l-carnitine"
same,"Coronary flow, Mean ± S.E.",isolated rabbit hearts [2]; 1·10^-5 g/lt,89.19 ± 6.75%
same,"Coronary flow, Mean ± S.E.",isolated rabbit hearts [2]; 1·10^-6 g/lt,73.12 ± 6.80%
same,"Coronary flow, Mean ± S.E.",isolated rabbit hearts [2]; 5·10^-6 g/lt,76.04 ± 8.96%
same,Mean percent variation versus controls: excitability (-%),isolated rat atrium; 1·10^-4 g/lt,63.60%
same,Mean percent variation versus controls: frequency max (-%),isolated rat atrium; 1·10^-4 g/lt,42.30%
same,Mean percent variation versus controls: refractory period (+%),isolated rat atrium; 1·10^-4 g/lt,27.10%
same,Mean percent variation versus controls: rheobase (+%),isolated rat atrium; 1·10^-4 g/lt,42.12%
same,Mean percent variation versus controls: excitability (-%),isolated rat atrium; 1·10^-5 g/lt,19.12%
same,Mean percent variation versus controls: frequency max (-%),isolated rat atrium; 1·10^-5 g/lt,23.20%
same,Mean percent variation versus controls: refractory period (+%),isolated rat atrium; 1·10^-5 g/lt,20.31%
same,Mean percent variation versus controls: rheobase (+%),isolated rat atrium; 1·10^-5 g/lt,25.35%
same,Mean percent variation versus controls: excitability (-%),isolated rat atrium; 1·10^-6 g/lt,12.07%
same,Mean percent variation versus controls: frequency max (-%),isolated rat atrium; 1·10^-6 g/lt,10.02%
same,Mean percent variation versus controls: refractory period (+%),isolated rat atrium; 1·10^-6 g/lt,16.32%
same,Mean percent variation versus controls: rheobase (+%),isolated rat atrium; 1·10^-6 g/lt,9.78%
same,antiarrhythmic effect,isolated rat atrium; isolated rat atrium,most clear cut antiarrhythmic properties
same,percentage of animals staying on the rota-rod more than 180 seconds,female rats; [5],0%
same,percentage of animals staying on the rota-rod more than 180 seconds,female rats; [6],0%
same,percentage of animals staying on the rota-rod more than 180 seconds,"female rats; 300 mg/kg i.p., session 3 (every 15 minutes)",0%
same,percentage of animals staying on the rota-rod more than 180 seconds,female rats; [7],0%
same,percentage of animals staying on the rota-rod more than 180 seconds,female rats; [8],10.0%
same,percentage of animals staying on the rota-rod more than 180 seconds,female rats; [9],20.0%
same,percentage of animals staying on the rota-rod more than 180 seconds,female rats; [10],0%
same,percentage of animals staying on the rota-rod more than 180 seconds,female rats; [11],0%
same,percentage of animals staying on the rota-rod more than 180 seconds,female rats; [12],10.0%
same,percentage of animals staying on the rota-rod more than 180 seconds,female rats; [13],20.0%
same,percentage of animals staying on the rota-rod more than 180 seconds,female rats; [14],20.0%
same,percentage of animals staying on the rota-rod more than 180 seconds,female rats; [15],30.0%
same,percentage of animals staying on the rota-rod more than 180 seconds,female rats; [16],0%
same,percentage of animals staying on the rota-rod more than 180 seconds,female rats; [17],0%
same,percentage of animals staying on the rota-rod more than 180 seconds,female rats; [18],10.0%
same,percentage of animals staying on the rota-rod more than 180 seconds,female rats; [19],20.0%
same,percentage of animals staying on the rota-rod more than 180 seconds,female rats; [20],30.0%
same,percentage of animals staying on the rota-rod more than 180 seconds,female rats; [21],40.0%
same,antagonism to adrenaline-induced toxicity,[3]; 250 mg/kg i.p. 30 minutes before adrenaline,"antagonize adrenaline-induced toxicity to a greater degree than d,l-carnitine"
same,LD50 (fiducial limits for 95%) of adrenaline after the compound,"[3]; Adrenaline + compound, compound 250 mg/kg i.p. 30 minutes before adrenaline, mice, mortality 36 hours",172.15 (110.02-219.48) mg/kg
"CC(=O)CC(=O)OC(CC(=O)[O-])C[N+](C)(C)C (racemic) [acetoacetyl-d,l-carnitine]",LD50,in vivo,~728 mg/kg
same,tolerance,mice,better tolerance properties
same,"Contractile force, Mean ± S.E.",isolated rabbit hearts [1]; 1·10^-5 g/lt,58.3 ± 5.08%
same,"Contractile force, Mean ± S.E.",isolated rabbit hearts [1]; 1·10^-6 g/lt,30.1 ± 3.98%
same,"Contractile force, Mean ± S.E.",isolated rabbit hearts [1]; 5·10^-6 g/lt,38.2 ± 4.66%
same,"Coronary flow, Mean ± S.E.",isolated rabbit hearts [2]; 1·10^-5 g/lt,89.82 ± 6.38%
same,"Coronary flow, Mean ± S.E.",isolated rabbit hearts [2]; 1·10^-6 g/lt,74.65 ± 3.54%
same,"Coronary flow, Mean ± S.E.",isolated rabbit hearts [2]; 5·10^-6 g/lt,75.70 ± 10.1%
same,inhibition at 0.1 µg/mL,"isolated rat atrium; 1·10^-4 g/lt, read-out: Mean percent variation versus controls: excitability (-%)",40.1%
same,inhibition at 0.1 µg/mL,"isolated rat atrium; 1·10^-4 g/lt, read-out: Mean percent variation versus controls: frequency max (-%)",25.5%
same,activation at 0.1 µg/mL,"isolated rat atrium; 1·10^-4 g/lt, read-out: Mean percent variation versus controls: refractory period (+%)",22.8%
same,activation at 0.1 µg/mL,"isolated rat atrium; 1·10^-4 g/lt, read-out: Mean percent variation versus controls: rheobase (+%)",21.9%
same,inhibition at 0.01 µg/mL,"isolated rat atrium; 1·10^-5 g/lt, read-out: Mean percent variation versus controls: excitability (-%)",27.1%
same,inhibition at 0.01 µg/mL,"isolated rat atrium; 1·10^-5 g/lt, read-out: Mean percent variation versus controls: frequency max (-%)",22.7%
same,activation at 0.01 µg/mL,"isolated rat atrium; 1·10^-5 g/lt, read-out: Mean percent variation versus controls: refractory period (+%)",14.7%
same,activation at 0.01 µg/mL,"isolated rat atrium; 1·10^-5 g/lt, read-out: Mean percent variation versus controls: rheobase (+%)",9.94%
same,inhibition at 0.001 µg/mL,"isolated rat atrium; 1·10^-6 g/lt, read-out: Mean percent variation versus controls: excitability (-%)",12.2%
same,inhibition at 0.001 µg/mL,"isolated rat atrium; 1·10^-6 g/lt, read-out: Mean percent variation versus controls: frequency max (-%)",7.34%
same,activation at 0.001 µg/mL,"isolated rat atrium; 1·10^-6 g/lt, read-out: Mean percent variation versus controls: refractory period (+%)",10.7%
same,activation at 0.001 µg/mL,"isolated rat atrium; 1·10^-6 g/lt, read-out: Mean percent variation versus controls: rheobase (+%)",3.01%
same,responders at 300 mg/kg,female rats; [5],0%
same,responders at 300 mg/kg,female rats; [6],0%
same,responders at 300 mg/kg,female rats; [7],10%
same,responders at 300 mg/kg,female rats; [8],10%
same,responders at 300 mg/kg,female rats; [9],10%
same,responders at 400 mg/kg,female rats; [10],0%
same,responders at 400 mg/kg,female rats; [11],0%
same,responders at 400 mg/kg,female rats; [12],20%
same,responders at 400 mg/kg,female rats; [13],20%
same,responders at 400 mg/kg,female rats; [14],20%
same,responders at 400 mg/kg,female rats; [15],30%
same,responders at 600 mg/kg,female rats; [16],0%
same,responders at 600 mg/kg,female rats; [17],10%
same,responders at 600 mg/kg,female rats; [18],20%
same,responders at 600 mg/kg,female rats; [19],40%
same,responders at 600 mg/kg,female rats; [20],40%
same,responders at 600 mg/kg,female rats; [21],40%
"CNCC(O)c1ccc(O)c(O)c1 (centres unmarked) [Adrenaline, reference compound]",LD50 at 36 h,[4],27.7 mg/kg
